Reference: ChEMBL document CHEMBL4130583, “Artocarmins G-M, Prenylated 4-Chromenones from the Stems of Artocarpus rigida and Their Tyrosinase Inhibitory Activities” (J Nat Prod, 2017)

Key:
Tyrosinase = target: T1, Tyrosinase (Homo sapiens, UniProt P14679); assay: Inhibition of tyrosinase (unknown origin) using L-dihydroxyphenylalanine as substrate preincubated for 30 mins followed by substrate addition measured for 7 mins by spectrophotometric analysis
T1 sequence (P14679 whole entry): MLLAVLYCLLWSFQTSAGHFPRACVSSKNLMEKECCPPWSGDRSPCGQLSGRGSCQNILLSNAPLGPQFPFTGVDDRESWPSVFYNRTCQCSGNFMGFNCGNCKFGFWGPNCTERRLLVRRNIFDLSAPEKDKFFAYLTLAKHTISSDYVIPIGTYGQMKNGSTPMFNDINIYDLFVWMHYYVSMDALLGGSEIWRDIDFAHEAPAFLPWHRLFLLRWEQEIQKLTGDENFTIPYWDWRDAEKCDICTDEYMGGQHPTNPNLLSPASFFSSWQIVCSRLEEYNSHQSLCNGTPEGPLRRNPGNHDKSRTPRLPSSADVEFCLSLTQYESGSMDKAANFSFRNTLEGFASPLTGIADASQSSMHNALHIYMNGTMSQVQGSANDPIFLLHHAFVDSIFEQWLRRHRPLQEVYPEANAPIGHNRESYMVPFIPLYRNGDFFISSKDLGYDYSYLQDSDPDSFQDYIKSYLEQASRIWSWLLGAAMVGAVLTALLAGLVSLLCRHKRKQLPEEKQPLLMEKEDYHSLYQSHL

[1] = target: T2, Tyrosinase (Homo sapiens) (UniProt P14679); assay: Potency index, ratio of kojic acid IC50 to compound IC50 for tyrosinase (unknown origin)
T2 sequence (whole entry): T1 sequence (P14679 whole entry)

| SMILES | IC50 (Tyrosinase) | Ratio IC50 [1] |
| --- | --- | --- |
| O=c1cc(-c2ccc(O)cc2O)oc2cc(O)cc(O)c12 [NORARTOCARPETIN] | 0.023 µM | 1900 |
| COc1c(-c2oc3cc(O)cc(O)c3c(=O)c2CC=C(C)C)cc(O)c(O)c1CC=C(C)C | 45.3 µM | – |
